Our source for the IC50 values is patent US20240368177A1, “5-AMINO-6,8-DIHYDRO-1H-FURO[3,4-d]PYRROLO[3,2-b]PYRIDINE-2-CARBOXAMIDE DERIVATIVES AS MTA-COOPERATIVE INHIBITORS OF PRMT5” (BeiGene Switzerland GmbH, priority 2023, published 2024).

The test system of experiment [1] is HCT116-MTAP-KO. The experiment is described as follows: Cell killing in HCT116 isogenic pair (Cell Titer-Glo viability), MTAP knock-out cells. The format is cell-based, human. The note with it: Homo sapiens, HCT-116, 144 h, 6 days incubation, 0-10 μM, * = more than 50% viability inhibition at tested concentration without a full curve. The source says:
(§1) HCT116 cell line (ATCC, CCL-247) was isolated from the colon of an adult with colon cancer. It has a mutation in codon 13 of the ras proto-oncogene and can be used as a positive control for PCR assays of mutation in this codon. HCT116-MTAP-KO was knocked-out-MTAP-gene based HCT116, and a single clone was passed for this assay. HCT116-mock-RNA-KO was knocked-out-mock-gene based HCT116 with MTAP wildtype genotype. The base medium for HCT116 isogenic pair is RPMI 1640, HEPES (Gibco, 22400105). To make the complete growth medium, added the following components to the base medium: fetal bovine serum to a final concentration of 10% (Gibco, 10099-141C). The cell line was grown in a humidified 5% CO2 atmosphere at 37° C. and regularly tested for the presence of mycoplasma with MpcoAlert™ PLUS Mycoplasma Detection Kit (Lonzak LT07-710).
(§2) • Seeded HCT116-mock-RNA-KO (4E2/well) or HCT116-MTAP-KO (4E2/well) cells into a 96-well plate (Greiner: 655090), 100 μL/well. • Incubated at 37° C., 5% CO2, overnight. • Added 50 μL fresh growth medium containing serial dilution of test compounds for a final test compound concentration of 0-10 μM to each well. • Incubated at 37° C., 5% CO2, 6 days. • The cell viability was detected by Cell Titer-Glo (Promega, G7573). Added 70 μL of CeliTiter-Glo® reagent in each well. • Incubated at room temperature for 10 minutes to stabilize luminescent signal. • Analyzed with Microplate Reader (TECAN, SPARK) and fit IC50 using Prism® 9.

Experiment [2] deals with HCT116-mock-RNA-KO. The experiment is described as follows: Cell killing in HCT116 isogenic pair (Cell Titer-Glo viability), mock knock-out cells with MTAP wildtype genotype. The format is cell-based, human. The note with it: Homo sapiens, HCT-116, 144 h, 6 days incubation, 0-10 μM.
Text: as §1, §2

A value given as a limit tells only on which side of the number the result lay.

With `Nc1nc2cc(C(=O)N(Cc3ccc(-c4c(F)cncc4F)cn3)[C@@H]3CCCc4cccnc43)[nH]c2c2c1COC2` [Example 1, (R)-5-amino-N-((3′,5′-difluoro-[3,4′-bipyridin]-6-yl)methyl)-N-(5,6,7,8-tetrahydroquinolin-8-yl)-6,8-dihydro-1H-furo[3,4-d]pyrrolo[3,2-b]pyridine-2-carboxamide], the values for the IC50 in experiment [1] and in experiment [2] were under 1.5 nM and 4.6 nM, respectively.
Regarding `Nc1nc2cc(C(=O)N(Cc3ccc(-c4c(F)cccc4F)cn3)[C@@H]3CCCc4cccnc43)[nH]c2c2c1COC2` [Example 2, (R)-5-amino-N-((5-(2,6-difluorophenyl)pyridin-2-yl)methyl)-N-(5,6,7,8-tetrahydroquinolin-8-yl)-6,8-dihydro-1H-furo[3,4-d]pyrrolo[3,2-b]pyridine-2-carboxamide], the half-inhibitory concentration (IC50) in experiment [1] came out at 3.3 nM; in experiment [2], 23 nM.
As to `Nc1nc2cc(C(=O)N(Cc3c(F)cccc3F)Cc3c(F)cccc3F)[nH]c2c2c1COC2` [Example 3, 5-amino-N,N-bis(2,6-difluorobenzyl)-6,8-dihydro-1H-furo[3,4-d]pyrrolo[3,2-b]pyridine-2-carboxamide], the IC50 in experiment [1] worked out at 2.4 nM; in experiment [2], 221 nM.
For `CO[C@@H]1CCOC[C@H]1N(Cc1ccc(-c2c(F)cccc2F)cn1)C(=O)c1cc2nc(N)c3c(c2[nH]1)COC3` [Example 4, 5-amino-N-((5-(2,6-difluorophenyl)pyridin-2-yl)methyl)-N-((3R,4R)-4-methoxytetrahydro-2H-pyran-3-yl)-6,8-dihydro-1H-furo[3,4-d]pyrrolo[3,2-b]pyridine-2-carboxamide], in that order: 2.3 nM and 99 nM.
For `Nc1nc2cc(C(=O)N(Cc3c(F)cccc3F)[C@@H]3CCCc4cccnc43)[nH]c2c2c1COC2` [Example 5, (R)-5-amino-N-(2,6-difluorobenzyl)-N-(5,6,7,8-tetrahydroquinolin-8-yl)-6,8-dihydro-1H-furo[3,4-d]pyrrolo[3,2-b]pyridine-2-carboxamide], in that order: 4 nM and 76 nM.
In the case of `Nc1nc2cc(C(=O)N(Cc3ccc(-c4c(F)cccc4F)cc3F)[C@@H]3CCCc4cccnc43)[nH]c2c2c1COC2` [Example 6, (R)-5-amino-N-(5,6,7,8-tetrahydroquinolin-8-yl)-N-((2′,3,6′-trifluoro-[1,1′-biphenyl]-4-yl)methyl)-6,8-dihydro-1H-furo[3,4-d]pyrrolo[3,2-b]pyridine-2-carboxamide], the results for the IC50 in experiment [1] and in experiment [2] were 11 nM and 40 nM, respectively.
As for `Nc1nc2cc(C(=O)N(Cc3ncccc3F)Cc3ncccc3F)[nH]c2c2c1COC2` [Example 7, 5-amino-N,N-bis((3-fluoropyridin-2-yl)methyl)-6,8-dihydro-1H-furo[3,4-d]pyrrolo[3,2-b]pyridine-2-carboxamide], the results for the IC50 in experiment [1] and in experiment [2] were 30 nM and 3140 nM, respectively.
As for `COCC(C)N(Cc1c(F)cccc1F)C(=O)c1cc2nc(N)c3c(c2[nH]1)COC3` (stereo not drawn) [Example 8, 5-amino-N-(2,6-difluorobenzyl)-N-(1-methoxypropan-2-yl)-6,8-dihydro-1H-furo[3,4-d]pyrrolo[3,2-b]pyridine-2-carboxamide], the 50% inhibitory concentration (IC50) in experiment [1] is 34 nM; in experiment [2], 2750 nM.
For `COCC(COC)N(Cc1c(F)cccc1F)C(=O)c1cc2nc(N)c3c(c2[nH]1)COC3` [Example 9, 5-amino-N-(2,6-difluorobenzyl)-N-(1,3-dimethoxypropan-2-yl)-6,8-dihydro-1H-furo[3,4-d]pyrrolo[3,2-b]pyridine-2-carboxamide], in that order: 46 nM and 3440 nM.
The like results for `Nc1nc2cc(C(=O)N(Cc3c(F)cncc3F)[C@@H]3CCCc4cccnc43)[nH]c2c2c1COC2` [Example 10, (R)-5-amino-N-((3,5-difluoropyridin-4-yl)methyl)-N-(5,6,7,8-tetrahydroquinolin-8-yl)-6,8-dihydro-1H-furo[3,4-d]pyrrolo[3,2-b]pyridine-2-carboxamide] were, in that order, 4.6 nM and 247 nM.
For `N#Cc1cnccc1-c1ccc(CN(C(=O)c2cc3nc(N)c4c(c3[nH]2)COC4)[C@@H]2CCCc3cccnc32)nc1` [Example 11, (R)-5-amino-N-((3′-cyano-[3,4′-bipyridin]-6-yl)methyl)-N-(5,6,7,8-tetrahydroquinolin-8-yl)-6,8-dihydro-1H-furo[3,4-d]pyrrolo[3,2-b]pyridine-2-carboxamide], in that order: 3.8 nM and 69 nM.
In the case of `Nc1nc2cc(C(=O)N(Cc3ccc(-c4c(F)cccc4F)cn3)[C@@H]3CCOc4ccccc43)[nH]c2c2c1COC2` [Example 12, 5-amino-N-(chroman-4-yl)-N-((5-(2,6-difluorophenyl)pyridin-2-yl)methyl)-6,8-dihydro-1H-furo[3,4-d]pyrrolo[3,2-b]pyridine-2-carboxamide], the IC50 is 29 nM in experiment [1] and 1910 nM in experiment [2].
The like results for `Nc1nc2cc(C(=O)N(Cc3ccc(-c4c(F)cccc4F)cn3)Cc3c(F)cccc3F)[nH]c2c2c1COC2` [Example 13, 5-amino-N-(2,6-difluorobenzyl)-N-((5-(2,6-difluorophenyl)pyridin-2-yl)methyl)-6,8-dihydro-1H-furo[3,4-d]pyrrolo[3,2-b]pyridine-2-carboxamide] were, in that order, 4.6 nM and 251 nM.
Consider `CO[C@@H]1CCOC[C@H]1N(Cc1ccc(-c2c(F)cccc2F)cc1F)C(=O)c1cc2nc(N)c3c(c2[nH]1)COC3` [Example 14, 5-amino-N-((3R,4R)-4-methoxytetrahydro-2H-pyran-3-yl)-N-((2′,3,6′-trifluoro-[1,1′-biphenyl]-4-yl)methyl)-6,8-dihydro-1H-furo[3,4-d]pyrrolo[3,2-b]pyridine-2-carboxamide], for which the values for the IC50 in experiment [1] and in experiment [2] were under 1.5 nM and 554 nM, respectively.
As to `CO[C@@H]1CCOC[C@H]1N(Cc1ccc(-c2c(F)cncc2F)cn1)C(=O)c1cc2nc(N)c3c(c2[nH]1)COC3` [Example 15, 5-amino-N-((3′,5′-difluoro-[3,4′-bipyridin]-6-yl)methyl)-N-((3R,4R)-4-methoxytetrahydro-2H-pyran-3-yl)-6,8-dihydro-1H-furo[3,4-d]pyrrolo[3,2-b]pyridine-2-carboxamide], the results for the IC50 in experiment [1] and in experiment [2] were 8.1 nM and 225 nM, respectively.
The like results for `COCC(COC)N(Cc1ccc(-c2c(F)cccc2F)cn1)C(=O)c1cc2nc(N)c3c(c2[nH]1)COC3` [Example 16, 5-amino-N-((5-(2,6-difluorophenyl)pyridin-2-yl)methyl)-N-(1,3-dimethoxypropan-2-yl)-6,8-dihydro-1H-furo[3,4-d]pyrrolo[3,2-b]pyridine-2-carboxamide] were, in that order, 1 nM and 165 nM.
The like results for `C[C@@H](c1ncccn1)N(Cc1ccc(-c2c(F)cccc2F)cn1)C(=O)c1cc2nc(N)c3c(c2[nH]1)COC3` [Example 17, (S)-5-amino-N-((5-(2,6-difluorophenyl)pyridin-2-yl)methyl)-N-(1-(pyrimidin-2-yl)ethyl)-6,8-dihydro-1H-furo[3,4-d]pyrrolo[3,2-b]pyridine-2-carboxamide] were, in that order, 8.2 nM and 1050 nM.
For `C[C@H](c1ncccn1)N(Cc1ccc(-c2c(F)cccc2F)cn1)C(=O)c1cc2nc(N)c3c(c2[nH]1)COC3` [Example 18, (R)-5-amino-N-((5-(2,6-difluorophenyl)pyridin-2-yl)methyl)-N-(1-(pyrimidin-2-yl)ethyl)-6,8-dihydro-1H-furo[3,4-d]pyrrolo[3,2-b]pyridine-2-carboxamide], in that order: 1.8 nM and 96 nM.
Turning to `Nc1nc2cc(C(=O)N(Cc3ccc(-c4c(F)cccc4F)cc3F)[C@@H]3CCOc4cccnc43)[nH]c2c2c1COC2` [Example 19, (R)-5-amino-N-(3,4-dihydro-2H-pyrano[3,2-b]pyridin-4-yl)-N-((2′,3,6′-trifluoro-[1,1′-biphenyl]-4-yl)methyl)-6,8-dihydro-1H-furo[3,4-d]pyrrolo[3,2-b]pyridine-2-carboxamide], the IC50 in experiment [1] is under 1.5 nM; in experiment [2], 185 nM.
For `Nc1nc2cc(C(=O)N(Cc3ccc(-c4c(F)cccc4F)cc3F)[C@H]3CCOc4cccnc43)[nH]c2c2c1COC2` [Example 20, (S)-5-amino-N-(3,4-dihydro-2H-pyrano[3,2-b]pyridin-4-yl)-N-((2′,3,6′-trifluoro-[1,1′-biphenyl]-4-yl)methyl)-6,8-dihydro-1H-furo[3,4-d]pyrrolo[3,2-b]pyridine-2-carboxamide], the results for the IC50 in experiment [1] and in experiment [2] were 658 nM and 4000 nM, respectively.
As for `N#Cc1cc(F)c(CN(C(=O)c2cc3nc(N)c4c(c3[nH]2)COC4)[C@@H]2CCCc3cccnc32)c(F)c1` [Example 21, (R)-5-amino-N-(4-cyano-2,6-difluorobenzyl)-N-(5,6,7,8-tetrahydroquinolin-8-yl)-6,8-dihydro-1H-furo[3,4-d]pyrrolo[3,2-b]pyridine-2-carboxamide], the values for the IC50 in experiment [1] and in experiment [2] were under 1.5 nM and 7 nM, respectively.
